Experiments:
[1] = system: Human immunodeficiency virus 1; assay: Antiviral activity against HIV1 infected in human C8166 cells expressing LTR after 3 days by luciferase reporter gene assay; assay type: functional, organism-based; conditions: Human immunodeficiency virus 1, C8166, 72 h
[2] = Cytotoxicity against human C8166 cells; assay type: cell-based
[3] = target: Structural capsid protein (Human immunodeficiency virus 1, UniProt Q76129); assay: Inhibition of HIV1 capsid-nucleocapsid assembly expressed in Escherichia coli BL21(DE3) after 2 hrs by fluorescence assay
Chain of Structural capsid protein (Q76129 whole entry): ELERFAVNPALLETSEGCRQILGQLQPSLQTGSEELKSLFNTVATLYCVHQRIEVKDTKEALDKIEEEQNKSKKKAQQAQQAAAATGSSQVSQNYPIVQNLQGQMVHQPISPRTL

[4] = target: Structural capsid protein (Human immunodeficiency virus 1) (UniProt Q76129); assay: Inhibition of HIV1 capsid-nucleocapsid assembly expressed in Escherichia coli BL21(DE3) at 3.5 uM after 2 hrs by fluorescence assay relative to control
Chain of Structural capsid protein (Human immunodeficiency virus 1) (Q76129 as listed by the source): as the sequence (Q76129 whole entry) above

SMILES	EC50 [1] [nM]	CC50 [2] [nM]	IC50 [3] [nM]	inhibition [4] [%]
CCN1C(=O)N(c2cccc(C(=O)NCCN3CCOCC3)c2)C(=O)N(c2ccccc2)c2cc(C(F)(F)F)ccc21	1100	> 19000	220	–
CCN1C(=O)N(c2ccc(C)cc2)C(=O)N(c2ccccc2)c2cc(C(F)(F)F)ccc21	540	> 6500	190	–
CCN1C(=O)C(c2ccccc2)C(=O)N(c2ccccc2)c2cc(C(F)(F)F)ccc21 (stereo unspecified)	2600	–	730	–
CCN1C(=O)C2(CCc3cc(OC)ccc32)C(=O)N(c2ccccc2)c2cc(C(F)(F)F)ccc21 (stereo unspecified)	510	> 4000	160	–
CCN1C(=O)C2(CC(C(C)C)c3cc(O)ccc32)C(=O)N(c2ccccc2)c2cc(C(F)(F)F)ccc21 (stereo unspecified)	–	–	1100	–
CCN1C(=O)C2(CC(N)c3cc(O)ccc32)C(=O)N(c2ccccc2)c2cc(C(F)(F)F)ccc21 (stereo unspecified)	–	–	3600	–
CN1C(=O)C(c2ccccc2)C(=O)N(c2ccccc2)c2cc(C(F)(F)F)ccc21 (stereo unspecified)	–	–	680	–
CN1C(=O)C2(CCc3cc(N)ccc32)C(=O)N(c2ccccc2)c2cc(C(F)(F)F)ccc21 (stereo unspecified)	410	> 15000	160	–
CCN1C(=O)C2(CC(O)c3cc(O)ccc32)C(=O)N(c2ccccc2)c2cc(C(F)(F)F)ccc21 (stereo unspecified)	–	–	2100	–
CCN1C(=O)N(c2ccccc2)C(=O)N(c2ccccc2)c2cc(C(F)(F)F)ccc21	600	> 4000	630	–
CCN1C(=O)N(c2cccc(OC)c2)C(=O)N(c2ccccc2)c2cc(C(F)(F)F)ccc21	1200	> 20000	210	–
CCN1C(=O)C2(CCc3cc(O)ccc32)C(=O)N(c2ccccc2)c2cc(C(F)(F)F)ccc21 (stereo unspecified)	690	32000	210	–
CCN1C(=O)N(c2ccc(O)c(C)c2)C(=O)N(c2ccccc2)c2cc(C(F)(F)F)ccc21	260	17000	90	–
CCN1C(=O)N(c2cccc(C(=O)NC)c2)C(=O)N(c2ccccc2)c2cc(C(F)(F)F)ccc21	1200	> 22000	280	–
CN1C(=O)C2(CCc3cc(NC(=O)[C@@H]4CCCN4)ccc32)C(=O)N(c2ccccc2)c2cc(C(F)(F)F)ccc21 (stereo partly specified)	520	11000	110	–
CCC1CC2(C(=O)N(CC)c3ccc(C(F)(F)F)cc3N(c3ccccc3)C2=O)c2ccc(O)cc21 (stereo unspecified)	–	–	730	–
CCN1C(=O)N(c2ccc(C(=O)NC)cc2)C(=O)N(c2ccccc2)c2cc(C(F)(F)F)ccc21	480	31000	130	–
CCN1C(=O)C2(CCc3ccc(O)cc32)C(=O)N(c2ccccc2)c2cc(C(F)(F)F)ccc21 (stereo unspecified)	1200	> 27000	590	–
CCN1C(=O)C2(CC(C)c3cc(O)ccc32)C(=O)N(c2ccccc2)c2cc(C(F)(F)F)ccc21 (stereo unspecified)	–	–	290	–
CCN1C(=O)N(c2ccc(OC)cc2)C(=O)N(c2ccccc2)c2cc(C(F)(F)F)ccc21	720	> 16000	180	–
CCN1C(=O)C2(CCc3ccccc32)C(=O)N(c2ccccc2)c2cc(C(F)(F)F)ccc21 (stereo unspecified)	1600	> 16000	460	–
CCN1C(=O)N(c2cc(C)c(O)c(Cl)c2)C(=O)N(c2ccccc2)c2cc(C(F)(F)F)ccc21	150	> 10000	60	–
CCN1C(=O)C2(CCc3c(O)cccc32)C(=O)N(c2ccccc2)c2cc(C(F)(F)F)ccc21 (stereo unspecified)	780	> 21000	240	–
CCN1C(=O)N(c2ccc(O)cc2)C(=O)N(c2ccccc2)c2cc(C(F)(F)F)ccc21	380	35000	50	–
CCN1C(=O)C2(CC(=O)c3cc(O)ccc32)C(=O)N(c2ccccc2)c2cc(C(F)(F)F)ccc21 (stereo unspecified)	–	–	1500	–
CN1C(=O)C(C)(c2ccccc2)C(=O)N(c2ccccc2)c2cc(C(F)(F)F)ccc21 (stereo unspecified)	–	–	–	8

Source: ChEMBL document CHEMBL2385011, “Optimization of a 1,5-dihydrobenzo[b][1,4]diazepine-2,4-dione series of HIV capsid assembly inhibitors 1: addressing configurational instability through scaffold modification” (Bioorg Med Chem Lett, 2013)
